Molecular target: Acidic mammalian chitinase (Homo sapiens, UniProt Q9BZP6)
Assay: Inhibition of human acidic mammalian chitinase

Chain of Acidic mammalian chitinase (Q9BZP6 whole entry): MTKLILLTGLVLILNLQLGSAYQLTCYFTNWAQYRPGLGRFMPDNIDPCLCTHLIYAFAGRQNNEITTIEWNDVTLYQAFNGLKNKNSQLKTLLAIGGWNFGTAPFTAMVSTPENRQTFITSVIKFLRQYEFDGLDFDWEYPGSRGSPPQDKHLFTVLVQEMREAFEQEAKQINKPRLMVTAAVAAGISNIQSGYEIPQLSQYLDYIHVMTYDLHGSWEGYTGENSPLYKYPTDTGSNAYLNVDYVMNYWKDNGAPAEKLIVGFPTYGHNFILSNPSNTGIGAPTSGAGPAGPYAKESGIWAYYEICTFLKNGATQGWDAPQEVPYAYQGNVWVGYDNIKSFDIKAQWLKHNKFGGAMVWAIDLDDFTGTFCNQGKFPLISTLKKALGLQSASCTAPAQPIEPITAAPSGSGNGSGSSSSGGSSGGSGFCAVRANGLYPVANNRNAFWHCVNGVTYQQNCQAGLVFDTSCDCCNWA

IC50: 4.5 µM
SMILES: CNC(=O)NC(=N)NCCC[C@@H]1NC(=O)[C@@H](C)NC(=O)C[C@@H](C(=O)O)NC(=O)C[C@@H](C(=O)O)NC(=O)[C@H](Cc2ccccc2)N(C)C1=O [ARGIFIN]

From ChEMBL document CHEMBL1152536, “Molecular modeling of human acidic mammalian chitinase in complex with the natural-product cyclopentapeptide chitinase inhibitor argifin” (Bioorg Med Chem, 2009)
